What was measured:
[1] = test system: RPMI8226-GFP-FLUC cells; assay: mouse model of multiple myeloma (RPMI8226-GFP-FLUC, tail vein); assay type: in vivo, NSG mice; details: 5 mg/kg intravenously, 2 days per week for 3 cycles, untreated group all died on day 50
Description: A total of 12 male NSG (NOD scid gamma) mice were used. The animals were housed in a semi-specific pathogen free (Semi-SPF) animal house at the Chonnam National University Center for Biomedical Science Convergence at a temperature of 20-24° C., humidity of 40-60%, and a 12-hour light/dark cycle, with 5 animals per cage. Sterile water and feed were provided ad libitum, and all experimental procedures were in accordance with the Animal welfare act and approved by the Institutional Animal Care and Use Committee of Chonnam National University (Approval No.: CNU IACUC-H-2020-36). […]
Mice were injected with RPMI8226-GFP-FLUC cells, and 8 days later, cancer formation was determined using an in vivo imaging system (IVIS) (NightOWL II LB983 NC100, Berthold, Germany). […]
Meanwhile, a multiple myeloma cell line (RPMI8226) was transfected with a puromycin resistance gene and a luciferase-GFP gene using a lentiviral vector at the EF1a promoter site, and the dynamics of MM cells in mice were identified and monitored by an in vivo bioluminescence imaging assay (FIG. 28). The transgenic multiple myeloma cell line, which can be monitored in vivo, was injected 1×10^7 cells/ml through the tail vein of 6-11 week old combined immunodeficient NSG mice to establish a mouse model of multiple myeloma. […]

[2] = initial acute toxicity evaluation (liver, kidney, cardiac markers); assay type: in vivo; details: rats, 5 mg/kg intravenously (femoral vein), blood 3 hours later
Description: As an initial toxicity evaluation of KBB-NX series synthetic compounds, KBB-NX-16 and KBB-NX-20 were injected intravenously into the femoral vein of rats at a dose of 5 mg/kg and blood was collected 3 hours later to test for markers of liver toxicity (marker ALT), nephrotoxicity (BUN, creatinine) and cardiotoxicity (CK-MB, myoglobin).

SMILES	survival after transplantation [1]	cardiotoxicity (CK-MB, myoglobin) [2]	hepatotoxicity (marker ALT) [2]	nephrotoxicity (BUN, creatinine) [2]
COc1cc(O)cc(O)c1C(=O)/C=C/c1ccc(O)cc1 [KBB-NX-2, (E)-1-(2,4-dihydroxy-6-methoxyphenyl)-3-(4-hydroxyphenyl)prop-2-en-1-one]	64 days			
COc1cc(O)c(CC=C(C)C)c2c1C(=O)CC(c1ccc(C(C)C)cc1)O2 (centres unmarked) [KBB-NX-16, 7-hydroxy-2-(4-isopropylphenyl)-5-methoxy-8-(3-methylbut-2-en-1-yl)chroman-4-one]		did not exhibit significant	did not exhibit significant	did not exhibit significant
COc1cc(O)cc2c1C(=O)CC(c1ccc(C)s1)O2 (centres unmarked) [KBB-NX-20, 7-hydroxy-5-methoxy-2-(5-methylthiophene-2-yl)chroman-4-one]		did not exhibit significant	did not exhibit significant	did not exhibit significant
Nc1cccc2c1CN(C1CCC(=O)NC1=O)C2=O (centres unmarked) [lenalidomide, 3-(4-amino-1-oxoisoindolin-2-yl)piperidine-2,6-dione, reference compound]	64 days			
